System: whole kidney samples, approximately 11,000 murine genes
Experiment: Kidney gene expression on oligonucleotide arrays in murine model of autoimmune kidney disease (untreated, rapamycin-treated, anti-B7-treated)
Format: in vivo, NZB/NZW F1 mice
Details: Example 2(A); normalized = difference in expression of less than five versus untreated asymptomatic mice
Experimental: NZB/NZW F1 (B/W) mice develop an autoimmune kidney disease that is analogous to human systemic erythematosus. Mice, aged at intervals from 12 weeks (asymptomatic) to 42 weeks (diseased) were chosen to mimic the clinical presentation of patients with established SLE. By seven months of age, mice begin to develop nephritis characterized by proteinuria, anti-DNA antibody production and histopathologic changes in the kidney. […]
Labeled RNA was prepared from clones containing a T7 RNA polymerase promoter site by incorporating labeled ribonucleotides in an in vitro transcription (IVT) reaction. […] RNA was concentrated and then quantitated by spectrophotometry. […]
The labeled and fragmented RNA probes were diluted in 1×MES buffer, BIO948, Bio C, B cre, 100 μg/ml herring sperm DNA, and 50 μg/ml acetylated BSA. […] When biotin-labeled RNA was used, the hybridized RNA was stained with a streptavidin-phycoerythrin conjugate (Molecule Probes, Eugene, Oreg.) prior to reading. […] The arrays were again washed and stained with streptavidin SSPE-T prior to being reading. The arrays were read using a scanning confocal microscope made for Affymetrix by Molecular Dynamics (commercially available through Affymetrix, Santa Clara, Calif.). […]

SMILES: CO[C@H]1C[C@@H]2CC[C@@H](C)[C@@](O)(O2)C(=O)C(=O)N2CCCC[C@H]2C(=O)O[C@H]([C@H](C)C[C@@H]2CC[C@@H](O)[C@H](OC)C2)CC(=O)[C@H](C)/C=C(\C)[C@@H](O)[C@@H](OC)C(=O)[C@H](C)C[C@H](C)/C=C/C=C/C=C/1C [rapamycin]
- number of genes not normalized by rapamycin treatment: 23 genes

Source: patent US20060188921A1, “Methods for diagnosing and treating systemic lupus erythematosus disease and compositions thereof” (Wyeth, priority 2001, published 2006)
